Assay results published in patent US12473282B2, “Biphenyl fluorine double bond derivative, preparation method therefor, and pharmaceutical application thereof” (Abbisko Therapeutics Co., Ltd., priority 2020, dated 2025).

experiment: Jurkat reporter gene cellular assay; assay type: cell-based; details: Homo sapiens; Jurkat/NF-κB-luc/PD1 + Raji-PD-L1 coculture, OKT3 1 μg/mL, 6 hrs, activation fold; read-out: Cell Activity EC50
Method: The effect of compounds of the examples of the present invention and positive compounds on the interaction between PD-1 and PD-L1 expressed on cell surfaces, and the related influence on T cell functions, were determined by a Jurkat reporter gene cellular assay.
Briefly, the reporter gene plasmid of NF-κB-luc and the plasmid of human PD-1 were transfected into Jurkat cells to establish a stably transfected cell line capable of stably expressing both PD-1 and NF-κB-Luc reporter genes; the expression level of PD-1 on the cell surface was confirmed by flow cytometry; and the expression of the reporter gene was confirmed via the response of the reporter gene stimulated by OKT-3 and Raiji cells.
In addition, the plasmid of human PD-L1 was transfected into Raji cells to obtain a cell line capable of stably expressing PD-L1. Jurkat/NF-κB-luc/PD1 cells and Raji-PD-L1 cells were then cocultured and stimulated with OKT-3. On this basis, the compounds were added, and the enhancement of the signal pathway of T cell activation by the inhibitory effect of the compounds on the interaction between PD-1 and PD-L1 was evaluated by readings of reporter gene responses. The specific experimental process was as follows: • 1. 30 μL of compound or antibody solution was added to each well of a white 96-well plate (corning, 3610) at different diluted concentrations, and 10 μL of OKT3 (Biolegend, 317326) was then added (the final concentration of OKT3: 1 μg/mL); • 2. 20 μL of Raji-PD-L1 cell suspension was added to each well with 5*10^4 cells for each well, and was incubated in an incubator for 20 min; • 3. 20 μL of Jurkat/NF-Kb-luc/PD-1 cell suspension was added to each well with 5*10^4 cells for each well, and well mixed, and 6 hrs later, Bright-glo (Promega, E2620) was applied and plates were read on Envision; • 4. The reading of each well treated with the compound was compared with the reading of each well treated with DMSO to obtain the activation fold of the compound; • 5. EC50 values of compounds and positive compounds of the examples of the present invention were determined by non-linear regression analysis of activation folds at different compound concentrations.

**Q.** Which EC50 does the source give for `Cc1c(/C=C(\F)c2nc3c(n2C)CCN(C(C)C)C3)cccc1-c1cccc(NC(=O)c2nc3c(n2C)CCN(CC24CCC(C(=O)O)(CC2)C4)C3)c1C` [Example 6, (Z)-4-((2-((3′-(2-fluoro-2-(5-isopropyl-1-methyl-4,5,6,7-tetrahydro-1H-imidazo[4,5-c]pyridin-2-yl)vinyl)-2,2′-dimethyl-[1,1′-biphenyl]-3-yl)carbamoyl)-1-methyl-1,4,6,7-tetrahydro-5H-imidazo[4,5-c]pyridin-5-yl)methyl)bicyclo[2.2.1]heptane-1-carboxylic acid] here?
**A.** Its EC50 is 973 nM.

**Q.** For `COc1cc(/C(F)=C/c2cccc(-c3cccc(NC(=O)c4nc5c(n4C)CCN(CCC46CCC(C(=O)O)(CC4)C6)C5)c3Cl)c2Cl)ncc1CN1CCCCC1` [Example 65, (Z)-4-(2-(2-((2,2′-dichloro-3′-(2-fluoro-2-(4-methoxy-5-(piperidin-1-ylmethyl)pyridin-2-yl)vinyl)-[1,1′-biphenyl]-3-yl)carbamoyl)-1-methyl-1,4,6,7-tetrahydro-5H-imidazo[4,5-c]pyridin-5-yl)ethyl) bicyclo[2.2.1]heptane-1-carboxylic acid], which EC50 is on record?
**A.** The EC50 was 137 nM.

**Q.** With `COc1cc(/C(F)=C/c2cccc(-c3cccc(NC(=O)c4nc5c(n4C)CCN(CCC46CCC(C(=O)O)(CC4)C6)C5)c3Cl)c2Cl)ncc1CN1CC[C@H](C(=O)O)C1` [Example 74, (S,Z)-1-((6-(2-(3′-(5-(2-(4-carboxybicyclo[2.2.1]heptan-1-yl)ethyl)-1-methyl-4,5,6,7-tetrahydro-1H-imidazo[4,5-c]pyridine-2-carboxamido)-2,2′-dichloro-[1,1′-biphenyl]-3-yl)-1-fluorovinyl)-4-methoxypyridin-3-yl)methyl)pyrrolidine-3-carboxylic acid] as the molecule, how does the EC50 read?
**A.** The EC50 was 136 nM.

**Q.** With `COc1cc(/C(F)=C/c2cccc(-c3cccc(NC(=O)c4nc5c(n4C)CCN(CCC46CCC(C(=O)O)(CC4)C6)C5)c3Cl)c2Cl)ncc1CN1CCCC1(C)C` [Example 67, (Z)-4-(2-(2-((2,2′-dichloro-3′-(2-(5-((2,2-dimethylpyrrolidin-1-yl)methyl)-4-methoxypyridin-2-yl)-2-fluorovinyl)-[1,1′-biphenyl]-3-yl)carbamoyl)-1-methyl-1,4,6,7-tetrahydro-5H-imidazo[4,5-c]pyridin-5-yl)ethyl)bicyclo[2.2.1]heptane-1-carboxylic acid] as the molecule, how does the EC50 read?
**A.** Its EC50 is 54.1 nM.

**Q.** For `COc1cc(/C(F)=C/c2cccc(-c3cccc(NC(=O)c4nc5c(n4C)CCN(CCC46CCC(C(=O)O)(CC4)C6)C5)c3Cl)c2Cl)ncc1CNC1CCC1` [Example 48, (Z)-4-(2-(2-((2,2′-dichloro-3′-(2-(5-((cyclobutylamino)methyl)-4-methoxypyridin-2-yl)-2-fluorovinyl)-[1,1′-biphenyl]-3-yl)carbamoyl)-1-methyl-1,4,6,7-tetrahydro-5H-imidazo[4,5-c]pyridin-5-yl)ethyl) bicyclo[2.2.1]heptane-1-carboxylic acid], which EC50 is on record?
**A.** Its EC50 is 80.6 nM.

**Q.** With `COc1cc(/C(F)=C/c2cccc(-c3cccc(NC(=O)c4nc5c(n4C)CCN(CCC46CCC(C(=O)O)(CC4)C6)C5)c3Cl)c2Cl)ncc1CNCC(C)(C)O` [Example 46, (Z)-4-(2-(2-((2,2′-dichloro-3′-(2-fluoro-2-(5-(((2-hydroxy-2-methylpropyl)amino)methyl)-4-methoxypyridin-2-yl)vinyl)-[1,1′-biphenyl]-3-yl)carbamoyl)-1-methyl-1,4,6,7-tetrahydro-5H-imidazo[4,5-c]pyridin-5-yl)ethyl)bicyclo[2.2.1]heptane-1-carboxylic acid] as the molecule, how does the EC50 read?
**A.** Its EC50 is 152 nM.

**Q.** Which EC50 does the source give for `COc1cc(/C(F)=C/c2cccc(-c3cccc(NC(=O)c4nc5c(n4C)CCN(CCC46CCC(C(=O)O)(CC4)C6)C5)c3Cl)c2Cl)ncc1CN1C[C@@H](O)[C@H](F)C1` [Example 57, 4-(2-(2-((2,2′-dichloro-3′-((Z)-2-fluoro-2-(5-(((3R,4R)-3-fluoro-4-hydroxypyrrolidin-1-yl)methyl)-4-methoxypyridin-2-yl)vinyl)-[1,1-biphenyl]-3-yl)carbamoyl)-1-methyl-1,4,6,7-tetrahydro-5H-imidazo [4,5-c]pyridin-5-yl)ethyl)bicyclo[2.2.1]heptane-1-carboxylic acid] here?
**A.** The EC50 was 72 nM.

**Q.** For `COc1cc(/C(F)=C/c2cccc(-c3cccc(NC(=O)c4nc5c(n4C)CCN(CCC46CCC(C(=O)O)(CC4)C6)C5)c3Cl)c2Cl)ncc1CN[C@H]1C[C@@H](O)C1` [Example 45, 4-(2-(2-((2,2′-dichloro-3′-((Z)-2-fluoro-2-(5-((((1S,3S)-3-hydroxycyclobutyl)amino)methyl)-4-methoxypyridin-2-yl)vinyl)-[1,1′-biphenyl]-3-yl)carbamoyl)-1-methyl-1,4,6,7-tetrahydro-5H-imidazo[4,5-c]pyridin-5-yl)ethyl)bicyclo[2.2.1]heptane-1-carboxylic acid], which EC50 is on record?
**A.** Its EC50 is 114 nM.

**Q.** For `COc1cc(/C(F)=C/c2cccc(-c3cccc(NC(=O)c4nc5c(n4C)CCN(CCC46CCC(C(=O)O)(CC4)C6)C5)c3Cl)c2Cl)ncc1CNC1CC1` [Example 47, (Z)-4-(2-(2-((2,2′-dichloro-3′-(2-(5-((cyclopropylamino)methyl)-4-methoxypyridin-2-yl)-2-fluorovinyl)-[1,1′-biphenyl]-3-yl)carbamoyl)-1-methyl-1,4,6,7-tetrahydro-5H-imidazo[4,5-c]pyridin-5-yl)ethyl) bicyclo[2.2. l]heptane-1-carboxylic acid], which EC50 is on record?
**A.** Its EC50 is 147 nM.

**Q.** With `COc1cc(/C(F)=C/c2cccc(-c3cccc(NC(=O)c4nc5c(n4C)CCN(CCC46CCC(C(=O)O)(CC4)C6)C5)c3Cl)c2Cl)ncc1CN1CC[C@](C)(O)C1` [Example 72, (S,Z)-4-(2-(2-((2,2′-dichloro-3′-(2-fluoro-2-(5-((3-hydroxy-3-methylyrrolidin-1-yl)methyl)-4-methoxypyridin-2-yl)vinyl)-[1,1′-biphenyl]-3-yl)carbamoyl)-1-methyl-1,4,6,7-tetrahydro-5H-imidazo[4,5-c]pyridin-5-yl)ethyl)bicyclo[2.2.1]heptane-1-carboxylic acid] as the molecule, how does the EC50 read?
**A.** Its EC50 is 116 nM.

**Q.** With `COc1cc(/C(F)=C/c2cccc(-c3cccc(NC(=O)c4nc5c(n4C)CCN(CCC46CCC(C(=O)O)(CC4)C6)C5)c3Cl)c2Cl)ncc1CN1Cc2cccnc2C1` [Example 68, (Z)-4-(2-(2-((2,2′-dichloro-3′-(2-(5-((5,7-dihydro-6H-pyrrolo[3,4-b]pyridin-6-yl)methyl)-4-methoxypyridin-2-yl)-2-fluorovinyl)-[1,1′-biphenyl]-3-yl)carbamoyl)-1-methyl-1,4,6,7-tetrahydro-5H-imidazo [4,5-c]pyridin-5-yl)ethyl)bicyclo[2.2.1]heptane-1-carboxylic acid] as the molecule, how does the EC50 read?
**A.** Its EC50 is 954 nM.

**Q.** With `COc1cc(/C(F)=C/c2cccc(-c3cccc(NC(=O)c4nc5c(n4C)CCN(CCC46CCC(C(=O)O)(CC4)C6)C5)c3Cl)c2Cl)ncc1CN1CC[C@H](C)C1` [Example 78, (S,Z)-4-(2-(2-((2,2′-dichloro-3′-(2-fluoro-2-(4-methoxy-5-((3-methylpyrrolidin-1-yl)methyl)pyridin-2-yl)vinyl)-[1,1′-biphenyl]-3-yl)carbamoyl)-1-methyl-1,4,6,7-tetrahydro-5H-imidazo[4,5-c]pyridin-5-yl)ethyl)bicyclo[2.2.1]heptane-1-carboxylie acid] as the molecule, how does the EC50 read?
**A.** The EC50 was 56.5 nM.

**Q.** With `COc1cc(/C(F)=C/c2cccc(-c3cccc(NC(=O)c4nc5c(n4C)CCN(CCC46CCC(C(=O)O)(CC4)C6)C5)c3Cl)c2Cl)ncc1CNC12CC3CC(CC(C3)C1)C2` [Example 53, (Z)-4-(2-(2-((3′-(2-(5-((adamantan-1-ylamino)methyl)-4-methoxypyridin-2-yl)-2-fluorovinyl)-2,2′-dichloro-[1,1′-biphenyl]-3-yl)carbamoyl)-1-methyl-1,4,6,7-tetrahydro-5H-imidazo[4,5-c]pyridin-5-yl)ethyl)bicyclo[2.2.1]heptane-1-carboxylic acid] as the molecule, how does the EC50 read?
**A.** The EC50 was 1040 nM.

**Q.** With `Cc1c(/C=C(\F)c2cc(C3CC3)c(CN3CCCC[C@H]3C(=O)O)cn2)cccc1-c1cccc(NC(=O)c2nc3c(n2C)CCN(C[C@@H](C)O)C3)c1C` [Example 19, (S)-1-((4-cyclopropyl-6-((Z)-1-fluoro-2-(3′-(5-((R)-2-hydroxypropyl)-1-methyl-4,5,6,7-tetrahydro-1H-imidazo[4,5-c]pyridine-2-carboxamido)-2,2′-dimethyl-[1,1′-biphenyl]-3-yl)vinyl)pyridin-3-yl)methyl)] as the molecule, how does the EC50 read?
**A.** The EC50 was 192 nM.

**Q.** For `COc1cc(/C(F)=C/c2cccc(-c3cccc(NC(=O)c4nc5c(n4C)CCN(CCC46CCC(C(=O)O)(CC4)C6)C5)c3Cl)c2Cl)ncc1CN1CC[C@@H](F)C1` [Example 60, (R,Z)-4-(2-(2-((2,2′-dichloro-3′-(2-fluoro-2-(5-((3-fluoropyrrolidin-1-yl)methyl)-4-methoxypyridin-2-yl)vinyl)-[1,1′-biphenyl]-3-yl)carbamoyl)-1-methyl-1,4,6,7-tetrahydro-5H-imidazo[4,5-c]pyridin-5-yl)ethyl)bicyclo[2.2.1]heptane-1-carboxylic acid], which EC50 is on record?
**A.** Its EC50 is 134 nM.
